Results reported in patent US8663914B2, “System and method for controlling bacterial cells with weak electric currents” (Syracuse University, priority 2009, dated 2014).
Converted amounts (≈) assume the structure as drawn. Where two headings read alike, the source gives them in different places.

Experiments:
[1] = tested on: E. coli HM22 persister cells; assay type: cell-based; settings: 0.85% NaCl buffer
Description: To evaluate the effects of electric currents, the persister cells were first isolated as described previously. Briefly, the exponential culture of HM22 at optical density at 600 nm (OD600) of 0.3 in LB medium was treated with 100 μg/mL ampicillin for 3 h to kill and lyse the normal cells. The persister cells were then collected by centrifugation at 8000 rpm at 4° C. for 10 min and resuspended in 0.85% NaCl buffer. Electrodes with a dimension of 1 cm×5.6 cm were cut from a flat 304L stainless steel sheet (MSC; Melville, N.Y.) or graphite sheet (McMaster-CARR, Santa Fe Springs, Calif.). The same material was used for both the counter electrode and working electrode, which were placed into a 4.5 mL standard-style polystyrene cuvette (Fisher Scientific; Hampton, N.H.). A 0.48 mm diameter silver wire (A-M Systems; Sequim, Wash.) was placed in bleach for 30 min to produce an Ag/AgCl reference electrode. The bottom 1″ of a borosilicate glass Pasteur pipette (Fisher) was cut and the reference wire was placed inside to prevent contact with the working or counter electrode. An AFCBP1 potentiostat/galvanostat (Pine Instrument Company, Grove City, Pa.) was connected via alligator clamps to the electrodes and used to control the current. The volume of medium in the fully-constructed electrochemical cell was 3 mL (see FIG. 2).

[2] = tested on: E. coli HM22 persister cells; assay: ROS accumulation (H2DCFDA fluorescence) and CFU count of E. coli HM22 persister cells treated with current and/or H2O2; assay type: cell-based
Description: Thus, the treatment could render the persister cells more susceptible to external ROS. To test this hypothesis, we treated E. coli HM22 persister cells with 100 μA for 20 min and followed by treatment with and without H2O2 (500 μM) for 1 h. These cells were then split into two parts: one for microscopic analysis and the other for CFU count. For microscopic study, cells were treated with 200 μM dichlorodihydrofluorescein diacetate (H2DCFDA, Sigma-Aldrich, St. Louis, Mo.) for 30 min in dark at room temperature. After incubation, cells were spin down and resuspended in PBS buffer for visualization using a fluorescence microscope (Axio Imager M1, ZEISS, Jena, Germany). The dye H2DCFDA can penetrate bacterial cells and get cleaved by cellular esterase to produce H2DCF. If there is any ROS present, this H2DCF will be converted to DCF and give fluorescence (Invitrogen, USA). […] For the CFU count, cells were plated on LB plates supplemented with DPA and incubated overnight at 37° C.

P. aeruginosa PAO1 = settings: ciprofloxacin up to 200 μg/mL, 3.5 h, overnight culture
P. aeruginosa PAO1 cells = assay: Killing of P. aeruginosa PAO1 cells at exponential phase by tobramycin and/or electric current (CFU count); assay type: cell-based
Description: Continued experiments, for example, have already shown that the effects of electric current and synergy with antibiotics is not species specific, as similar results were shown using P. aeruginosa. The experiments were conducted in the same way as described for E. coli HM22. Briefly, an overnight culture of P. aeruginosa PAO1 was used to inoculate LB medium to an OD600 of ˜0.005 (1:1000 dilution of an overnight culture with LB) and incubated till OD600 reached ˜0.7. Then the cells were washed twice with 0.85% NaCl buffer and treated in the same way as described for planktonic E. coli cells. […] Treatment with 75 μA/cm^2 for 60 min reduced the number of viable P. aeruginosa PAO1 cells by 3 logs.

E. coli HM22 biofilms = assay: Killing of E. coli HM22 biofilm cells on 304L stainless steel coupons by tobramycin and/or direct current (CFU count); assay type: cell-based
Description: To determine if electric currents are also effective in killing persister cells in biofilms, E. coli HM22 biofilms were cultured on 304L stainless steel coupons. The biofilm-coated coupons were then used as anodic or cathodic electrode, and treated with direct current alone or with tobramycin together. Immediately after treatment, the cells were removed from the biofilm-coated coupons by sonication and vertexing. A portion of the cells was directly plated on LB+DPA plates to quantify the total number of viable cells by counting CFU, the other part of the sample was treated with 100 μg/mL ampicillin for another 3 h and plated on LB+DPA plates to quantify the number of the viable persister cells. This approach allowed us to study the killing effects on normal and persister cells separately.
However, treatments with 75 μA/cm^2 alone for 60 min reduced the number of viable persister cells by 3.5 logs. After treating biofilms with currents and tobramycin together for 60 min, the number of viable persister cells was reduced by 5.4 log (nearly complete killing, FIG. 4). Thus, synergy between electric currents and antibiotics also exist for killing persister cells in biofilms.

[3] = tested on: P. aeruginosa PAO1 persister cells; assay: Killing of P. aeruginosa PAO1 persister cells by tobramycin with electric current or pretreated buffer (CFU count); assay type: cell-based
Description: Thus, the 1% cells that survived the treatment were persister cells and treatment with 200 μg/mL Cip was used in the following experiments to harvest persister cells and ensure the complete killing of normal cells.
However, treatment with 75 μA/cm^2 (500 μA total) current reduced the number of viable persisters by ˜2.5 logs and another 2 logs of killing was obtained when treating with Tob together, as shown in FIG. 12. […] This is a significant advantage compared to traditional antibiotics, which commonly fail to kill bacterial cells that are in stationary phase or are persisters.
To understand if the killing by electric currents was due to the ions generated by electrochemical reactions, P. aeruginosa PAO1 persister cells were also treated with pretreated buffer, which was prepared by treating 0.85% NaCl buffer with SS304 stainless steel electrodes for the same current level and duration as used for the above experiments. The pretreated buffers were collected after 20, 40 or 60 min of treatment. P. aeruginosa PAO1 persister cells were collected as described above and resuspended in the pretreated buffers in the presence and absence of Tob. The cells were then incubated at room temperature without shaking for up to 1 h and samples were collected every 20 min to count CFU. […] The generation of ROS as described in E. coli HM22 data could be partially responsible for the killing. In addition, no synergy was observed between pretreated buffer and 1.5 μg/mL Tob.

[4] = tested on: B. subtilis BE1500 biofilms; assay: Treatment of B. subtilis BE1500 biofilms with ampicillin and/or DC (CFU count); assay type: cell-based
Description: MIC is not a useful measurement of the response of biofilms to antibiotics because antibiotics added in the growth medium before inoculation could kill planktonic cells before they can form a biofilm. Therefore it is important to characterize the minimum bactericidal concentration (MBC) of ampicillin on established biofilms. B. subtilis BE1500 was cultured overnight as described above. Flat stainless steel electrodes were placed in a 100 mm petri dish with 20 mL LB medium, which was inoculated with 20 μL of an overnight culture. Biofilms were allowed to develop for 48 hours at 37° C. without shaking. The electrodes with biofilms were gently washed three times in 0.85% NaCl buffer and immersed in LB medium containing various concentrations of ampicillin for 15 min. Immediately after treatment, the electrodes with biofilms were placed in a 15 mL polystyrene test tube (Fisher Scientific) containing 4 mL 0.85% NaCl buffer and sonicated for 2 min to remove the biofilm cells from the surface. The stainless steel electrode was then removed and the tube was vortexed for 30 s to break up any remaining cell clusters. CFUs were counted after spreading the buffer with cells on LB agar plates and incubated overnight at 37° C.
Treatment of Biofilm Cultures with Ampicillin and DC. B. subtilis BE1500 biofilms were prepared as described for MBC experiments. Prior to treatment, biofilms were gently washed three times with 0.85% NaCl buffer. Each stainless steel coupon with biofilm was placed as the working electrode in the electrochemical cell cuvette shown in FIG. 16. Prior to placing the electrode with biofilm in the cuvette, 3 mL LB medium was added to the cuvette to prevent the biofilm from drying out. Samples were treated for 15 min with 0, 25, 83 and 250 μA/cm^2. Immediately after treatment, the biofilms were placed in a 15 mL polystyrene test tube containing 4 mL 0.85% NaCl buffer and sonicated for 2 min to remove the biofilm from electrode. The stainless steel electrode was then removed and the tube containing the cells and buffer was vortexed for 30 s to break up any remaining cell clusters. Cell densities were determined by plating the cultures on LB/agar plates and counting CFUs. The effect of current-generated ions was tested in the same way except that the cells were incubated in pre-treated LB in the absence of a current.

B. subtilis 168 = settings: reported in the literature; cited from earlier work
[5] = tested on: planktonic B. subtilis BE1500; assay: Minimum inhibitory concentration of ampicillin on planktonic cells (OD600, 96-well plate); assay type: cell-based; settings: Bacillus subtilis; LB medium, 24 hours, 37° C.
Description: Determination of Minimum Inhibitory Concentration and Minimum Bactericidal Concentrations. To determine the minimum inhibitory concentrations (MICs) of ampicillin on planktonic cells, B. subtilis 168 and B. subtilis BE1500 were cultured in LB medium overnight as described above. The overnight cultures were subcultured by a 1:1000 dilution in LB medium containing various concentrations of ampicillin with seven replicates in a 96-well plate and allowed to grow at 37° C. with shaking at 200 rpm for 24 hours. The OD600 was measured immediately after inoculations and at 24 hours after inoculation with a microplate reader (Model EL808, BioTek Instruments, Winooski, Vt.).

[6] = tobramycin alone, 20 μg/mL or 150 μg/mL, compared to untreated control

CCn1nc(C(=O)O)c(=O)c2cc3c(cc21)OCO3 [cinoxacin]
reduction in the number of viable persister cells ([1]; 20 μg/mL cinoxacin alone, graphite electrodes cell, 60 min): no apparent reduction
reduction in the number of viable persister cells ([1]; 20 μg/mL cinoxacin together with 75 μA/cm^2 current, graphite electrodes): more than 5 log

OO [H2O2]
accumulation of ROS in persister cells ([2]; H2O2 500 μM, 1 h, H2DCFDA fluorescence): caused accumulation of ROS
killing of persister cells (CFU) ([2]; electric current (100 μA, 20 min) followed by H2O2 500 μM for 1 h, versus either alone): killed more persister cells than either the EC or H2O2 alone

O=C(O)c1cn(C2CC2)c2cc(N3CCNCC3)c(F)cc2c1=O [ciprofloxacin]
cells that survived the treatment (P. aeruginosa PAO1): 1%

NC[C@H]1O[C@H](O[C@H]2[C@H](O)[C@@H](O[C@H]3O[C@H](CO)[C@@H](O)[C@H](N)[C@H]3O)[C@H](N)C[C@@H]2N)[C@H](N)C[C@@H]1O [tobramycin]
killing of viable cells (P. aeruginosa PAO1 cells; 1.5 μg/mL Tob alone, 0.85% NaCl buffer): did not cause any significant killing
killing of viable cells (P. aeruginosa PAO1 cells; 1.5 μg/mL Tob combined with 75 μA/cm^2 for 60 min): up to 5 logs
reduction of number of viable persister cells in biofilm (E. coli HM22 biofilms; currents (75 μA/cm^2 DC) and tobramycin (20 μg/mL) together for 60 min): 5.4 log
reduction in number of viable persister cells in biofilm (E. coli HM22 biofilms; [6]): no significant reduction
reduction in total number of viable cells in biofilm (E. coli HM22 biofilms; [6]): no significant reduction
killing of persister cells ([3]; 1.5 μg/mL Tob alone): not able to kill
synergy between pretreated buffer and Tob ([3]; 1.5 μg/mL Tob in 0.85% NaCl buffer pretreated with SS304 electrodes, no current, up to 1 h): no synergy
additional killing of persister cells beyond current alone ([3]; 1.5 μg/mL Tob together with 75 μA/cm^2 (500 μA total) current): 2 logs
synergy with electric current in killing persister cells ([1]; tobramycin with 75 μA/cm^2 DC, graphite electrodes): synergistic effect

CC1(C)S[C@@H]2[C@H](NC(=O)[C@H](N)c3ccccc3)C(=O)N2[C@H]1C(=O)O [ampicillin]
change in killing on adding ampicillin to current ([4]; 50 μg/mL ampicillin and 500 μA current, graphite electrodes, chlorine-free M56 buffer, versus current alone): slight decrease in killing
biofilm cells killed ([4]; 1000 μg/mL ampicillin alone for 15 min): 59%
synergy of DC and ampicillin on biofilms ([4]; 83 μA/cm^2 DC and ampicillin together, stainless steel electrodes): no apparent synergy
inhibition at 50 µg/mL ([4]; Bacillus subtilis, BE1500BIOFILMS, 0.25 h, 50 μg/mL ampicillin with 500 μA DC current, 15 min, graphite electrodes, read-out: decrease in cell viability): 44%
inhibition at 100 µg/mL ([4]; Bacillus subtilis, BE1500BIOFILMS, 0.25 h, 100 μg/mL ampicillin with 83 μA/cm^2 DC, 15 min, 37° C., stainless steel electrodes, versus antibiotic alone, read-out: decrease in cell viability): 79%
inhibition at 1000 µg/mL ([4]; Bacillus subtilis, BE1500BIOFILMS, 0.25 h, 1000 μg/mL ampicillin with 83 μA/cm^2 DC, 15 min, 37° C., stainless steel electrodes, versus antibiotic alone, read-out: decrease in cell viability): 86%
inhibition at 50 µg/mL ([4]; Bacillus subtilis, BE1500BIOFILMS, 0.25 h, read-out: decrease in cell viability, 50 μg/mL ampicillin with 83 μA/cm^2 (500 μA) DC, 15 min, 37° C., stainless steel electrodes, LB, versus antibiotic alone): 93%
viability at 50 µg/mL ([4]; Bacillus subtilis, BE1500BIOFILMS, 50 μg/mL ampicillin with 500 μA DC current, graphite electrodes, chlorine-free M56 buffer, read-out: viability of biofilm cells (untreated control normalized as 100%)): 74%
MIC (B. subtilis 168): 0.2 µg/mL (≈ 0.572 µM)
MIC [5]: ≤ 2 µg/mL
